Data set [1] has as its system lymphoid derived cell lines and peripheral blood mononuclear cells. To be noted: in vitro; cited from earlier work.
A short description of data set [2]: Solubility of EFdA Forms 1, 2 and 4 in acetonitrile as a function of temperature. It is filed as physicochemical. To be noted: for Solubility / Solubility Ratio (Form 1/4): acetonitrile; for Form 1 and Form 4 ΔΔG: calculated; for Relative thermodynamic stability of the phase: from solubility in acetonitrile between 25.0 and 65.0 °C. How it is done:
The Gibbs free energy (ΔG) of a phase is the fundamental thermodynamic parameter that determines the relative stability of a polymorphs at a given temperature. The solubility of a particular polymorph is related to the ΔG by the equation ΔG=−RTln (solubility). The polymorph with the lowest solubility is considered to be the thermodynamically stable phase at a given temperature. Table 6 lists the measured solubility for Forms 1, 2 and 4 of EFdA in acetonitrile between 25.0 and 65.0° C. […] The relatively low ΔΔG values for conversion of Form 1 to Form 4 (i.e., the energy gap between Form 1 and Form 4 is small; 0.21-0.35 kJ/mol), combined with the fast crystallization kinetics of Form 1 as compared to Form 4, result in difficulties isolating Form 4 using conventional methods of polymorph screening.

Data set [3] is described as follows: Critical water activity from solubility in acetonitrile as a function of water content. It is filed as physicochemical. The conditions noted are these: 25 °C. The procedure:
The thermodynamic parameter for the stability of the monohydrate Form MH and anhydrate Form 4 of EFdA is the critical water activity. Below this water activity, anhydrous Form 4 is thermodynamically preferred. Above this water activity, monohydrate Form MH is thermodynamically preferred. The solubility of EFdA monohydrate Form MH and anhydrate Forms 1 and 4 were determined in acetonitrile as a function of water content at 25.0° C. The critical water activity for the EFdA monohydrate/Form 4 system at 25° C. was determined to be 0.3.

A short description of data set [4]: Crystal form stability in hot melt extrusion (HME) of EFdA/EVA implant product, by XRD. It is filed as physicochemical. The procedure: Anhydrate crystalline Forms 1, 2, and 4 of EFdA were isolated by hot melt extrusion (HME) processing. Micronized ethylene vinyl acetate (EVA) polymer and monohydrate crystalline Form MH of EFdA were blended with a Turbula T2F mixer at various ratios: 30, 35, 40, 45 and 50 wt % drug. The pre-blend was hot melt extruded with an 18 mm Leistritz twin screw extruder with a 25:1 L/D, throughput of 400 g/hr, temperatures ranging from 100-140° C., feed zone at 40° C., and screw speed at 30 rpm. Two screw configurations were used, both predominately consisting of conveying elements with different mixing sections. The less aggressive screw design contained a mixing section consisting of conveying, kneading elements each 15 mm in length, with twisting angles of 30°, 60°, and 60° (“HME low shear Process A”). The more aggressive screw design included additional mixing segments after the mixing section used in the less aggressive design: conveying, kneading elements each 15 mm in length, with a twisting angle of 90° (“HME high shear Process B”). For both extrusion set-ups, the strands were then air-cooled and pelletized to form micropellets. The pellets were then extruded with a ½″ American Kuhne single screw extruder with temperatures ranging from 110-140° C., feed zone at 25° C., and screw speed at 20-25 rpm to form a 2±0.05 mm diameter filament, and then cut to a length of 40±2 mm. […]

Consider 5 compounds from patent publication US12227536B2, “Crystalline forms of an NRTTI compound” (Merck Sharp & Dohme LLC, priority 2018, dated 2025).

Consider `C#C[C@]1(COP(=O)(O)OP(=O)(O)OP(=O)(O)O)O[C@@H](n2cnc3c(N)nc(F)nc32)C[C@@H]1O` [EFdA-TP], for which the Intracellular half-life entry in data set [1] was “exceeds 72 hrs”.
In the case of `C#C[C@]1(CO)O[C@@H](n2cnc3c(N)nc(F)nc32)C[C@@H]1O` [Form 1, 4′-Ethynyl-2-fluoro-2′-deoxyadenosine], the Solubility in data set [2] (25.0 °C) amounted to 2.15 ± 0.02 mg/g solv; in data set [2] (35.0 °C), 2.43 ± 0.01 mg/g solv; in data set [2] (45.0 °C), 3.44 ± 0.02 mg/g solv; in data set [2] (55.0 °C), 4.74 ± 0.02 mg/g solv; in data set [2] (65.0 °C) it was 6.81 ± 0.03 mg/g solv. Also, the “Solubility Ratio (Form 1/4)” value in data set [2] (25.0 °C) was 1.15; in data set [2] (35.0 °C), 1.13; in data set [2] (45.0 °C), 1.08; in data set [2] (55.0 °C), 1.12; in data set [2] (65.0 °C), 1.13. The “ΔΔG for conversion of Form 1 to Form 4 (energy gap)” value in data set [2] (between 25.0 and 65.0 °C) fell in the range of 0.0502 to 0.0837 kcal/mol. The “Form 1 and Form 4 ΔΔG” value in data set [2] (25.0 °C) is 0.0837 kcal/mol; in data set [2] (35.0 °C), 0.0789 kcal/mol; in data set [2] (45.0 °C) it was 0.0502 kcal/mol; in data set [2] (55.0 °C) it was 0.0717 kcal/mol; in data set [2] (65.0 °C) it was 0.0789 kcal/mol.
On to `C#C[C@]1(CO)O[C@@H](n2cnc3c(N)nc(F)nc32)C[C@@H]1O` [Form 2, 4′-Ethynyl-2-fluoro-2′-deoxyadenosine], for which the Solubility in data set [2] (25.0 °C) worked out at 2.43 ± 0.01 mg/g solv; in data set [2] (35.0 °C), 3.20 ± 0.03 mg/g solv; in data set [2] (45.0 °C), 4.39 ± 0.04 mg/g solv; in data set [2] (55.0 °C) it was 5.79 ± 0.09 mg/g solv; in data set [2] (65.0 °C), 7.72 ± 0.12 mg/g solv. For the same compound, the “Relative thermodynamic stability of the phase” value in data set [2] is listed as “least stable phase”.
On to `C#C[C@]1(CO)O[C@@H](n2cnc3c(N)nc(F)nc32)C[C@@H]1O` [Form 4, 4′-Ethynyl-2-fluoro-2′-deoxyadenosine], for which the Solubility in data set [2] (25.0 °C) stood at 1.87 ± 0.02 mg/g solv; in data set [2] (35.0 °C) it was 2.14 ± 0.02 mg/g solv; in data set [2] (45.0 °C) it was 3.18 ± 0.01 mg/g solv; in data set [2] (55.0 °C), 4.24 ± 0.01 mg/g solv; in data set [2] (65.0 °C), 6.05 ± 0.05 mg/g solv. Also, the “Relative thermodynamic stability of the phase” value in data set [2] is “most thermodynamically stable phase”. The “Critical water activity, EFdA monohydrate/Form 4 system” value in data set [3] turned out to be 0.3.
Take `C#C[C@]1(CO)O[C@@H](n2cnc3c(N)nc(F)nc32)C[C@@H]1O` [Form MH, 4′-Ethynyl-2-fluoro-2′-deoxyadenosine]: the “Crystal form after HME processing” value was “converted the Form MH phase into anhydrate Form 4” in data set [4] (HME high shear Process B); “converted the Form MH phase into anhydrate Form 1 and anhydrate Form 2” in data set [4] (HME low shear Process A).
